Data on five molecules can be found in patent US12522598B2, “3-(2-(heteroaryl)-pyridin-4-yl)-5-(trifluoromethyl)-1,2,4-oxadiazole derivatives as HDAC6 inhibitors” (ORYZON GENOMICS, S.A., priority 2019, dated 2026).

This test concerns the target T1, HDAC6 (Homo sapiens, UniProt Q9UBN7).
T1 construct: purchased BPS Bioscience 50006
T1 sequence (Q9UBN7 1-1215): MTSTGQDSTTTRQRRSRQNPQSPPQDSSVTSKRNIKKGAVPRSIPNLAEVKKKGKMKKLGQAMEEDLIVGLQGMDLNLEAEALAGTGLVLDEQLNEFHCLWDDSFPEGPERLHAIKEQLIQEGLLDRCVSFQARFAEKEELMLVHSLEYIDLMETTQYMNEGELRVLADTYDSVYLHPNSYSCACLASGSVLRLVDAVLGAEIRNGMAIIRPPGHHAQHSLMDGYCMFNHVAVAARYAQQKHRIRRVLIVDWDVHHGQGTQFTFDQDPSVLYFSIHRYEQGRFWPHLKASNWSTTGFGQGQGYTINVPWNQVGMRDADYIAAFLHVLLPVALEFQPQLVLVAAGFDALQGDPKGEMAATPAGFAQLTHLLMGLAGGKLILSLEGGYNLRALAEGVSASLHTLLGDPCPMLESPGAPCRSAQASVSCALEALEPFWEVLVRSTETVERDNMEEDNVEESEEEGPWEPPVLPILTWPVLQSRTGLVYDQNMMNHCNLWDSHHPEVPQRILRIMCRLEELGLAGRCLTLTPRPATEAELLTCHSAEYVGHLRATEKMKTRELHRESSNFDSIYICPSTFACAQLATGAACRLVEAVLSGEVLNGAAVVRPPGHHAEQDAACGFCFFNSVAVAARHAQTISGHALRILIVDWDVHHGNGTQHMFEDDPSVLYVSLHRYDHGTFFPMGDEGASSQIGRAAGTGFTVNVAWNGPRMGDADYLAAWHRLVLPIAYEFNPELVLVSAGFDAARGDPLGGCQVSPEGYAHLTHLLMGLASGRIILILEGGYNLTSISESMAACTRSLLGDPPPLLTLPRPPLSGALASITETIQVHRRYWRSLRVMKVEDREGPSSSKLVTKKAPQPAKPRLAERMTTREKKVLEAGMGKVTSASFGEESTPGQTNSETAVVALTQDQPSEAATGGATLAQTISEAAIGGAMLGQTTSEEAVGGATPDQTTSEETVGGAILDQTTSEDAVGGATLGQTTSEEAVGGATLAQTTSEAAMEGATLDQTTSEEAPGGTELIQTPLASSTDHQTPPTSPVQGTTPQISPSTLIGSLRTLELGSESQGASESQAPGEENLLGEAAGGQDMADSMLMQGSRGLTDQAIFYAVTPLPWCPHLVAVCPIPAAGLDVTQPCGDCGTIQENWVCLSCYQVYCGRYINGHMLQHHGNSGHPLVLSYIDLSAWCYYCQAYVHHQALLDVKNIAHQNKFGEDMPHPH
Briefly: HDAC6 enzyme inhibition assay (fluorimetric). The class given is biochemical. To be noted: 3 hours preincubation with enzyme, fraction of positive control; for inhibition at 0.1 µM: read-out: HDAC6 % inh @ 0.1 μM; for inhibition at 0.3 µM: read-out: HDAC6 % inh @ 0.3 μM; for inhibition at 1 µM: read-out: HDAC6 % inh @ 1 μM. The protocol:
A fluorimetric assay was used to determine the biochemical activity of the inhibitors on HDAC6 in 96-Well Half Area Black Microplates (Corning #3686)+TopSeal-A Black Sealing Film (Perkin Elmer #6050173). Test compounds were dissolved in DMSO. Half-log serial dilutions of test compounds were prepared in DMSO and then diluted 1:10 in assay buffer (BPS Bioscience #50031).
2.5 μL of enzyme (BPS Bioscience #50006) was incubated with 2.5 μL of test compounds for 3 hours in assay buffer with 0.1 mg/mL Bovine Serum Albumin (Sigma-Aldrich #A7030) at 21° C. in 22.5 μL total volume. The enzymatic reaction was started with the addition of 2.5 μL of a fluorogenic acetylated peptide substrate (BPS Bioscience #50037). The final concentration of enzyme and substrate in the reaction were 8.8 nM and 9 μM, respectively. After 45 minutes of incubation at 37° C., the addition of 25 μL of a development solution (BPS
Bioscience #50030) releases a fluorophore whose amount is proportional to the amount of the deacetylated product. Fluorescence intensity was measured after 15 minutes incubation at 21° C. with a Tecan Infinite F200 microplate reader (excitation 360 nm-emission 460 nm).
The negative control (background) was represented by the reaction mix in the absence of the enzyme (with 0.1% DMSO), while the positive control of deacetylase activity was obtained in the absence of test compounds (with 0.1% DMSO) after background subtraction. Percentage of inhibition was calculated as a fraction of the positive control.

Counter-ions that a name gives are not always drawn.

Turning to `Cn1c(C(=O)N2CC[C@H](O)C2)cc2cc(-c3cc(-c4noc(C(F)(F)F)n4)ccn3)ncc21` [Example 2h, (S)-(3-Hydroxypyrrolidin-1-yl)(1-methyl-5-(4-(5-(trifluoromethyl)-1,2,4-oxadiazol-3-yl)pyridin-2-yl)-1H-pyrrolo[2,3-c]pyridin-2-yl)methanone hydrochloride], the inhibition at 0.1 µM (0.1 μM test compound) is 65%. Further, where the note is “0.3 μM test compound”, the inhibition at 0.3 µM is 80%. Further, for the setting “1 μM test compound”, the inhibition at 1 µM amounted to 94%.
As to `Cn1c(C(=O)N2CCOCC2)cc2cc(-c3cc(-c4noc(C(F)(F)F)n4)ccn3)ncc21` [Example 3, (1-Methyl-5-(4-(5-(trifluoromethyl)-1,2,4-oxadiazol-3-yl)pyridin-2yl)-1H-pyrrolo[2,3-c]pyridin-2-yl)(morpholino)methanone mesylate], under “0.1 μM test compound”, the inhibition at 0.1 µM was 59%. Besides, the inhibition at 0.3 µM (0.3 μM test compound) turned out to be 84%. Moreover, the inhibition at 1 µM (1 μM test compound) came to 93%.
For `Cn1c(C(=O)N2CCNCC2)cc2cc(-c3cc(-c4noc(C(F)(F)F)n4)ccn3)ncc21` [Example 4, (1-Methyl-5-(4-(5-(trifluoromethyl)-1,2,4-oxadiazol-3-yl)pyridin-2-yl)-1H-pyrrolo[2,3-c]pyridin-2-yl)(piperazin-1-yl)methanone] the same measures were 69%, 86% and 95%.
Turning to `COCCn1nc(-c2cc(-c3noc(C(F)(F)F)n3)ccn2)c2nccc(Cl)c21` [Example 5, 3-(2-(7-Chloro-1-(2-methoxyethyl)-1H-pyrazolo[4,3-b]pyridin-3-yl)pyridin-4-yl)-5-(trifluoromethyl)-1,2,4-oxadiazole], the inhibition at 0.1 µM (0.1 μM test compound) came out at 61%. Besides, the inhibition at 0.3 µM (0.3 μM test compound) amounted to 82%. Besides, the inhibition at 1 µM (1 μM test compound) is 94%.
Regarding `CC1(C)C2CCC1(CS(=O)(=O)O)C(=O)C2.Cn1c(C(=O)N2CC[C@H](O)C2)cc2cc(-c3cc(-c4noc(C(F)(F)F)n4)ccn3)ncc21` [Example 6, (S)-(3-Hydroxypyrrolidin-1-yl)(1-methyl-5-(4-(5-(trifluoromethyl)-1,2,4-oxadiazol-3-yl)pyridin-2-yl)-1H-pyrrolo[2,3-c]pyridin-2-yl)methanone (+) Camphorsulfonate Salt], the “HDAC6 % inh @ 0.1 μM” value (0.1 μM test compound) is listed as 61%. The “HDAC6 % inh @ 0.3 μM” value (0.3 μM test compound) came out at 81%. Further, for the setting “1 μM test compound”, the “HDAC6 % inh @ 1 μM” value is 91%.
